In US8173682B2, “Substituted pyridones as inhibitors of poly(ADP-ribose) polymerase (PARP)” (Aventis Pharmaceuticals Inc., priority 2004, dated 2012):
Counter-ions that a name gives are not always drawn.

Molecular target: T1, recombinant human PARP (PARP1) (Homo sapiens, UniProt P09874)
T1 construct: Full length human PARP (PARP1) is assembled from PCR fragments; His6 tag with TEV site, from the pFastBac-HTb vector (own knowledge of the vector); made in house; host or cells: insect cells, baculovirus (Bac-to-Bac, Gibco-BRL)
T1 sequence (P09874 whole entry, the tested form may be a part): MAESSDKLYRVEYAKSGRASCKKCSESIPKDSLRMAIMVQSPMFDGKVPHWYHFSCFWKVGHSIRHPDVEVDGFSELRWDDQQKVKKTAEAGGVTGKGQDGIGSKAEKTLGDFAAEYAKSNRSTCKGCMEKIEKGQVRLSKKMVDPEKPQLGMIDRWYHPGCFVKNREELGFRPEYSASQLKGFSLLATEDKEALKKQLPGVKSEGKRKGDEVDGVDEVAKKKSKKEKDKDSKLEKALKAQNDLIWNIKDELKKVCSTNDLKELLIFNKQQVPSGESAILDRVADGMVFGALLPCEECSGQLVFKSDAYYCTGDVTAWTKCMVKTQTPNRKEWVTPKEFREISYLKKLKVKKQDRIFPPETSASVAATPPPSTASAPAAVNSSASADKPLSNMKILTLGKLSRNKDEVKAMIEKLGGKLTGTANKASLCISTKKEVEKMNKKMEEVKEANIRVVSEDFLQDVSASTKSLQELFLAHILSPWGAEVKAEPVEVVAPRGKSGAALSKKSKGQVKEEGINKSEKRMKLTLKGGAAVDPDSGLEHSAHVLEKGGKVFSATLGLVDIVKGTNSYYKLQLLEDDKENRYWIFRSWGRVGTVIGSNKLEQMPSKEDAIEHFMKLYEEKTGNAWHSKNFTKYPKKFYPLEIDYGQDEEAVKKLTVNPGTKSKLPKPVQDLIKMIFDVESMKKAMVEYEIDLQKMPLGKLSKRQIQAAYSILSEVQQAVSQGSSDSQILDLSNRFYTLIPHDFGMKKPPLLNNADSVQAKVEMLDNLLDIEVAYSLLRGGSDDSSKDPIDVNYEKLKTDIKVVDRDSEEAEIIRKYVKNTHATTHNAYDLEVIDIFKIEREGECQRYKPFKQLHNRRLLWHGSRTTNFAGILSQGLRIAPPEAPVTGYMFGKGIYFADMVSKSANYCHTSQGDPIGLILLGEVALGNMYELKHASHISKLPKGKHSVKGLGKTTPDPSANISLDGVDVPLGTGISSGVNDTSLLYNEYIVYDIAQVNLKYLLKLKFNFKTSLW
Assay: PARP enzyme assay, Method A (radioactivity or 'ELISA' enzyme assay with partially purified enzyme)
Type: biochemical
Conditions: recombinant human PARP preparation, radioactive or ELISA enzyme assay
In short: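 Partially purified recombinant full-length His-tagged human PARP1, baculovirus-expressed. Radioactive format: 100 μg/mL sonicated DNA, 100 μg/mL histones, 100 mM Tris pH 8.0, 10 mM MgCl2, 200 μM labeled NAD, 10 min 37 °C or 60 min RT, TCA-precipitated counts. ELISA format: 250 μM NAD plus biotin-NAD on histone plates, TMB A450.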

| IC50 | Structure (SMILES) |
| --- | --- |
| 0.46 µM | CCc1cc(-c2ccc(S(=O)(=O)NC3CCN(Cc4ccccc4)CC3)o2)c(C)[nH]c1=O [Example 46, 5-(5-Ethyl-2-methyl-6-oxo-1,6-dihydropyridin-3-yl)furan-2-sulfonic acid (1-benzylpiperidin-4-yl)amide hydrochloride] |
| 0.49 µM | CCc1cc(-c2ccc(S(=O)(=O)NCC3CCCN3CC)s2)c(C)[nH]c1=O (centres unmarked) [Example 102, 5-(5-Ethyl-2-methyl-6-oxo-1,6-dihydropyridin-3-yl)-thiophene-2-sulfonic acid (1-ethyl-pyrrolidin-2-ylmethyl)amide hydrochloride] |
| 0.44 µM | CCc1cc(-c2ccc(CNC3Cc4ccccc4C3)s2)c(C)[nH]c1=O [Example 156, 3-Ethyl-5-[5-(indan-2-ylaminomethyl)-thiophen-2-yl]-6-methyl-1H-pyridin-2-one hydrochloride] |
| 1.2 µM | CCc1cc(-c2ccc(S(=O)(=O)NCC(c3cccnc3)N3CCOCC3)s2)c(C)[nH]c1=O (centres unmarked) [Example 72, 5-[5-Ethyl-2-methyl-6-oxo-1,6-dihydropyridin-3-yl]thiophene-2-sulfonic acid 2-(morpholin-4-yl)-2-(pyridin-3-yl)ethylamide dihydrochloride] |
| 0.79 µM | CCc1cc(-c2ccc(CN3CCC4(CC3)OCCO4)s2)c(C)[nH]c1=O [Example 149, 5-[5-(1,4-Dioxa-8-aza-spiro[4,5]dec-8-ylmethy)-thiophen-2-yl)-3-ethyl-6-methyl-1H-pyridin-2-one hydrochloride] |
| 0.26 µM | CCc1cc(-c2ccc(CNCc3ccccc3F)s2)c(C)[nH]c1=O [Example 192, 3-Ethyl-5-{5-[(2-fluoro-benzylamino)-methyl]-thiophen-2-yl}-6-methyl-1H-pyridin-2-one hydrochloride] |
| 1.4 µM | CCc1cc(-c2ccc(S(=O)(=O)N3CCNCC3)s2)c(C)[nH]c1=O [Example 94, 3-Ethyl-6-methyl-5-[5-(piperazine-1-sulfonyl)thiophen-2-yl]-1H-pyridin-2-one hydrochloride] |
| 0.21 µM | CCc1cc(-c2ccc(S(N)(=O)=O)s2)c(C)[nH]c1=O [Example 111, 5-(5-ethyl-2-methyl-6-oxo-1,6-dihydro-pyridin-3-yl)-thiophene-2-sulfonic acid amide] |
| 0.63 µM | CCc1cc(-c2ccc(S(=O)(=O)N3CCN(c4ccccc4)CC3)s2)c(C)[nH]c1=O [Example 24, 3-Ethyl-6-methyl-5-[5-(4-phenylpiperazine-1-sulfonyl)thiophen-2-yl]-1H-pyridin-2-one] |
| 0.4 µM | CCc1cc(-c2ccc(CNCc3ccc(Cl)cc3)s2)c(C)[nH]c1=O [Example 168, 5-{5-[(4-chlorobenzylamino)methyl]thiophen-2-y}]-3-ethyl-6-methyl-1H-pyridin-2-one hydrochloride] |
| 0.6 µM | CCc1cc(-c2ccc(CNCc3ccc(OC)cc3)s2)c(C)[nH]c1=O [Example 169, 5-{5-[(4-Methoxybenzylamino)methyl]thiophen-2-y}]-3-ethyl-6-methyl-1H-pyridin-2-one hydrochloride] |
| 0.22 µM | CCc1cc(-c2ccc(S(=O)(=O)N3CCN(c4ccncc4)CC3)o2)c(C)[nH]c1=O [Example 45, 3-Ethyl-6-methyl-5-{5-[(4-pyridin-4-yl)piperazine-1-sulfonyl]furan-2-yl}-1H-pyridin-2-one hydrochloride] |
| 1.5 µM | CCc1cc(-c2ccc(S(=O)(=O)NCC3CCN(C(=O)OC(C)(C)C)CC3)s2)c(C)[nH]c1=O [Example 41-1, 5-(5-Ethyl-2-methyl-6-oxo-1,6-dihydropyridin-3-yl)thiophene-2-sulfonic acid (1-tert-butyloxycarbonylpiperidin-4-yl)methylamide] |
| 5.7 µM | CCc1cc(-c2ccc(S(=O)(=O)N3CCN(CCN4CCCCC4)CC3)s2)c(C)[nH]c1=O [Example 57, 3-Ethyl-6-methyl-5-{5-[4-(2-piperidin-1-yl)ethylpiperizine-1-sulfonyl]thiophen-2-yl}-1H-pyridin-2-one dihydrochloride] |
| 0.18 µM | CCc1cc(-c2ccc(S(=O)(=O)NCc3ccco3)s2)c(C)[nH]c1=O [Example 97, 5-(5-Ethyl-2-methyl-6-oxo-1,6-dihydropyridin-3-yl)-thiophene-2-sulfonic acid (furan-2-ylmethyl)amide] |
| 0.52 µM | CCc1cc(-c2ccc(S(=O)(=O)NCC3CCNCC3)s2)c(C)[nH]c1=O [Example 41-2, 5-[5-Ethyl-2-methyl-6-oxo-(1,6-dihydropyridin-3-yl)]thiophene-2-sulfonic acid (piperidin-4-yl)methylamide hydrochloride] |
| 1.3 µM | CCc1cc(-c2ccc(CNC3CCN(CC4CCCCC4)CC3)s2)c(C)[nH]c1=O [Example 132, 5-{5-[(1-Cyclohexylmethyl-piperidin-4-ylamino)-methyl]thiophen-2-yl}-3-ethyl-6-methyl-1H-pyridin-2-one dihydrochloride] |
| 0.67 µM | CCc1cc(-c2ncon2)c(C)[nH]c1=O [Example 23, 3-Ethyl-6-methyl-5-(1,2,4-oxadiazol-3-yl)-1H-pyridin-2-one] |

| IC50 | Structure (SMILES) |
| --- | --- |
| 0.55 µM | CCc1cc(-c2ccc(CNCc3cccc(OC)c3)s2)c(C)[nH]c1=O [Example 167, 5-{5-[(3-Methoxybenzylamino)methyl]thiophen-2-y}]-3-ethyl-6-methyl-1H-pyridin-2-one hydrochloride] |
| 0.3 µM | CCc1cc(-c2ccc(S(=O)(=O)NC3CCN(CC4CCCCC4)CC3)s2)c(C)[nH]c1=O [Example 75, 5-(5-Ethyl-2-methyl-6-oxo-1,6-dihydropyridin-3-yl)thiophene-2-sulfonic acid (1-cyclohexylmethylpiperidin-4-yl)amide hydrochloride] |
| 0.38 µM | CCc1cc(-c2ccc(S(=O)(=O)N3CCCN(C)CC3)o2)c(C)[nH]c1=O [Example 52, 3-Ethyl-6-methyl-5-[5-(4-methyl-1,4-diazepane-1-sulfonyl)furan-2-yl]-1H-pyridin-2-one hydrochloride] |
| 1.7 µM | CCc1cc(-c2ccc(CNCCc3cccnc3)s2)c(C)[nH]c1=O [Example 163, 3-Ethyl-6-methyl-5-{5-{[(pyridin-3-ylethyl)amino]methyl}thiophen-2-yl)-1H-pyridin-2-one dihydrochloride] |
| 0.8 µM | CCc1cc(-c2ccc(CN3CCC[C@H]3COC)s2)c(C)[nH]c1=O [Example 191, 3-Ethyl-5-{5-[(S)-2-methoxymethylpyrrolidin-1-ylmethyl]thiophen-2-yl}-6-methyl-1H-pyridin-2-one hydrochloride] |
| 0.67 µM | CCc1cc(-c2ccc(S(=O)(=O)NCCCN3CCN(C)CC3)s2)c(C)[nH]c1=O [Example 65, 5-(5-Ethyl-2-methyl-6-oxo-1,6-dihydropyridin-3-yl)thiophene-2-sulfonic acid 3-(4-methylpiperazin-1-yl)propylamide dihydrochloride] |
| 3.1 µM | CCc1cc(-c2ccc(S(=O)(=O)N3CCC[C@H]3CNc3ccccc3)s2)c(C)[nH]c1=O [Example 105, 3-Ethyl-6-methyl-5-[5-((S)-2-phenylaminomethylpyrrolidine-1-sulfonyl)-thiophen-2-yl]-1H-pyridin-2-one hydrochloride] |
| 0.8 µM | CCc1cc(-c2ccc(CNC3CCc4ccccc4C3)s2)c(C)[nH]c1=O (centres unmarked) [Example 134, 3-Ethyl-6-methyl-5-{5-[(1,2,3,4-tetrahydro-naphthalen-2-ylamino)-methyl]thiophen-2-yl}-1H-pyridin-2-one hydrochloride] |
| 0.84 µM | CCc1cc(-c2ccc(CNCc3ccccc3Cl)s2)c(C)[nH]c1=O [Example 188, 5-{5-[(2-Chlorobenzylamino)methyl]thiophen-2-yl}-3-ethyl-6-methyl-1H-pyridin-2-one hydrochloride] |
| 1.2 µM | CCc1cc(-c2ccc(S(=O)(=O)NCC3CCCO3)s2)c(C)[nH]c1=O (centres unmarked) [Example 112, 5-(5-Ethyl-2-methyl-6-oxo-1,6-dihydropyridin-3-yl)thiophene-2-sulfonic acid (tetrahydrofuran-2-ylmethyl)amide] |
| 0.67 µM | CCc1cc(-c2ccc(CNCCCn3ccnc3)s2)c(C)[nH]c1=O [Example 153, 3-Ethyl-6-methyl-5-{5-[(3-imidazol-1-yl-propylamino)-methyl]thiophen-2-yl)-1H-pyridin-2-one dihydrochloride] |
| 2.4 µM | CCc1cc(-c2ccc(CN3CCC(Cc4ccccc4)CC3)s2)c(C)[nH]c1=O [Example 183, 5-[5-(4-Benzylpiperidin-1-ylmethyl)thiophen-2-yl]-3-ethyl-6-methyl-1H-pyridin-2-one hydrochloride] |
| 0.28 µM | CCc1cc(-c2ccc(S(=O)(=O)N(C)C3CCN(C)CC3)s2)c(C)[nH]c1=O [Example 77, 5-[5-Ethyl-2-methyl-6-oxo-1,6-dihydropyridin-3-yl]thiophene-2-sulfonic acid methyl-(1-methylpiperidin-4-yl]amide hydrochloride] |
| 5.3 µM | CCc1cc(-c2ccc(S(=O)(=O)N3CCC(O)CC3)s2)c(C)[nH]c1=O [Example 87, 3-Ethyl-5-[5-(4-hydroxypiperidine-1-sulfonyl)thiophen-2-yl]-6-methyl-1H-pyridin-2-one] |
| 1.8 µM | CCc1cc(-c2ccc(CN3CCC(O)(c4ccccc4)CC3)s2)c(C)[nH]c1=O [Example 185, 3-Ethyl-5-[5-(4-hydroxy-4-phenylpiperidin-1-ylmethyl)thiophen-2-yl]-6-methyl-1H-pyridin-2-one hydrochloride] |
| 2.1 µM | CCc1cc(-n2ccnn2)c(C)[nH]c1=O [Example 13, 3-Ethyl-6-methyl-5-(1,2,3-triazol-1-yl)-1H-pyridin-2-one] |
| 0.9 µM | CCc1cc(-c2ccc(S(=O)(=O)NCC(C)O)s2)c(C)[nH]c1=O (centres unmarked) [Example 113, 5-(5-Ethyl-2-methyl-6-oxo-1,6-dihydropyridin-3-yl)thiophene-2-sulfonic acid (2-hydroxypropyl)amide] |
